The source of these data is patent publication US8058236B2, “Aqueous inhalation pharmaceutical composition” (Development Center for Biotechnology, priority 2005, dated 2011).

Series [1] has as its system Sprague-Dawley male rats. The experiment in a line: In vivo bioavailability study: plasma glucose decrease after pulmonary administration to rats. Also on record: species or system rat. As to conditions: enhancer added to insulin formulation.
Procedure: Sprague-Dawley male rats weighted 200-250 g were randomly divided into 7 groups. According to the method disclosed in Enna, S. T. et al. (J. Physiol., 1972, 222: 409-414), after the rats were narcotized by abdominally injecting pentobarbital sodium (28.6 ml/kg), catheters were inserted into the trachea and the left femoral artery, respectively, from the cut neck. Group 1 was the control group, wherein each rat was administered with Formulation A only.
The collected blood samples were centrifuged at 3000 rpm in 4° C. for 15 minutes. The upper layer of the plasma was collected. […] The concentrations of insulin in the upper layer samples of plasma were determined by the utilization of a Rat Insulin ELISA Kit (Mercodia), and the pharmacokinetic parameters of the absorption enhancers were further analyzed.
Series [2] has as its system Sprague-Dawley male rats. The series is classed as in vivo, rat. To be noted: absorption enhancer in insulin formulation, pulmonary administration. As for the experimental part: Sprague-Dawley male rats weighted 200-250 g were randomly divided into 7 groups. […] Group 1 was the control group, wherein each rat was administered with Formulation A only.
After administering the formulations to the lung for 0, 5, 15, 30, 60, 90, 120, 180, 240, and 300 minutes, 0.25 ml of blood sample was collected from each rat. After the pulmonary administration for 5 hours, an excess amount of pentobarbital sodium (3 ml) was injected into the femoral artery of the rats. After 5 minutes, the rats were bled and then pulmonary perfusion with phosphate buffer solution was performed.
The collected first 5 ml pulmonary perfusion samples were centrifuged at 350×g in 4° C. for 10 minutes. […]
Based on the pigmentation principle of Biuret reaction (British Pharmacopoeia, p. A23 (1998)), the amount of total protein was determined by measuring the value of OD546 with Autoanalyzer Hitachi 7150; then, the value was converted into the concentration of the protein (the results are shown in Table 3).
Based on the standard operation procedures of the GSCC (German Society of Clinical Chemistry; Recommendation of the German Society for Clinical Chemistry: Z. Klin. Chem. Klin. Biochem., 10, 287-288, 1972), the activity of LDH was determined by measuring the change of OD340 with Autoanalyzer Hitachi 7150; then, the change was converted into the activity of LDH (the results are shown in Table 3).

Turning to `CCCCCCCC/C=C\CCCCCCCC(=O)OCCOCC(OCCO)C1OCC(OCCO)C1OCCO` (stereo not drawn) [Tween-80], the “bioavailability of insulin, maximal increase by addition of absorption enhancer” value with Sprague-Dawley male rats [1] stood at 84.6%. Further, the “toxic side effects in the lung” value with Sprague-Dawley male rats [2] was “would not induce toxic side effects in the lung”.

For the molecule LPTC-lauroyl [L-LPTC], the “toxic side effects in the lung” value in the series with Sprague-Dawley male rats [2] was “would not induce toxic side effects in the lung”.
